Drawing on US11479539B2, “Small molecule modulators of the BTB domain of Keap1” (MedImmune Limited, priority 2017, dated 2022), this text covers EC50 for 25 compounds.

Structures are written as SMILES.

The target of this experiment is Keap1 (Homo sapiens (Human), UniProt Q14145). In words: HEK293 ARE luciferase assay. Type of experiment: cell-based. The note with it: HEK-293 ARE firefly luciferase transiently transfected cells; 18 h incubation; mean of 1 to 20 individual measurements. An excerpt: The purpose of this assay is to identify small molecule inhibitors of Keap1, preventing Keap1 binding to Nrf2, and thus activating the Nrf2 signalling pathway in HEK-293 ARE firefly luciferase transiently transfected cells. HEK-293 cells express wild-type Keap1 protein and therefore have low constitutive levels of Nrf2 protein and Nrf2-dependent transcription. […] When Keap1 is inhibited, Nrf2 signalling is activated, and there is an increase in luciferase expression and light emission.
Sequence of Keap1 (Q14145 whole entry): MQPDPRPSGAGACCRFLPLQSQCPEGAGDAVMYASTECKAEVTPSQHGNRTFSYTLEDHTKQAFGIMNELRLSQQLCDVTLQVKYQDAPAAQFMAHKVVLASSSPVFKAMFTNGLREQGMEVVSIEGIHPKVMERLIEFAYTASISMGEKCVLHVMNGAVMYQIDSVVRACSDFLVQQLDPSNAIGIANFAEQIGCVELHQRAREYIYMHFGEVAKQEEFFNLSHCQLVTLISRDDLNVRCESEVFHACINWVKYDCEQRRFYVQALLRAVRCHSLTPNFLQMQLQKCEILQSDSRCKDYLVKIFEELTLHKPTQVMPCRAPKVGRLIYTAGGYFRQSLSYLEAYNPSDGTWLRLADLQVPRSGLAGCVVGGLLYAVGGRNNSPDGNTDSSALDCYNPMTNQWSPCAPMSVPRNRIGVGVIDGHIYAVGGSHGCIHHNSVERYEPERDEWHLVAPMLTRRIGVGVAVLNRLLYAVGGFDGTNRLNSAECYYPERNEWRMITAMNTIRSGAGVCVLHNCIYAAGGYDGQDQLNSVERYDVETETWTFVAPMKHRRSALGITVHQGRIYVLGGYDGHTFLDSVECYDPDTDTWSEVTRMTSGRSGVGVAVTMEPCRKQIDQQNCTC
Cryopreserved HEK ARE luciferase cells were rapidly thawed in a 37° C. water bath and resuspended in assay culture medium (DMEM, 10% FCS, 2 mM L-glutamine). The cell suspension was pelleted by centrifugation ([…]; 300 g) using a Heraeus benchtop centrifuge. Supernatant was removed and the pellet was gently resuspended in 5 mL culture medium per vial. Cell viability and cell number was measured using an Invitrogen Countess automated cell counter (typical viability 80%), and cells were diluted to a density of 5.0×10^5 cells/mL.
Cells were then plated out into white 384-well plates (Greiner 781080) using a Multidrop Combi, 20 μL/well, to give 10,000 cells/well. As appropriate, test compounds had been added to wells prior to dispensing cells using an Echo 555 acoustic dispenser (Labcyte). Plates were left at room temperature for ˜10 min to promote even cell settling across the plate before incubation for 18 h at 37° C., 95% humidity and 5% CO2.
After 18 h incubation, plates were removed from the incubator and allowed to cool to room temperature for 30 min, before 10 μL per well SteadyGlo reagent detection reagent was added (as per manufacturer's instructions, 10 min before required 10 mL room temperature buffer was added to one vial of lyophilised substrate and inverted several times to fully dissolve). Plates were then incubated in the dark for 30 min before reading on an Envision plate reader.
Compounds were acoustically dispensed using a Labcyte Echo, using a 10 pt dose curve with a top concentration of 100 μM. Assay wells were backfilled with DMSO to a total of 60 nL to maintain 0.3% (v/v) DMSO through the assay.
The Stimulator signal was defined using 30 μM tert-butyl hydroquinone (tBHQ) and the Neutral signal by DMSO vehicle control. All calculations were performed using GeneData.
In IBIS Column Calculations, Assay Type was set to ‘Stimulator’, and the Activity Threshold was set to 50.
The mean values were calculated from anywhere from 1 to 20 individual measurements.
A word on the EC50: it is the concentration that produces a half-maximal response. Low readings indicate higher potency in that assay, high ones lower potency in that assay. For `CCn1cc(-c2cc(F)cnc2C2(OC)C=C(C#N)C(=O)C(C)(C)C2)cn1` (single isomer, unassigned) [Compound 86, 3-[3-(1-ethylpyrazol-4-yl)-5-fluoro-2-pyridyl]-3-methoxy-5,5-dimethyl-6-oxo-cyclohexene-1-carbonitrile], the concentration for a half-maximal effect (EC50) came to 9 nM.
Compound `COC1(c2ncc(F)cc2-c2cncc(C(F)(F)F)c2)C=C(C#N)C(=O)C(C)(C)C1` (single isomer, unassigned) [Compound 87, 3-[5-fluoro-3-[5-(trifluoromethyl)-3-pyridyl]-2-pyridyl]-3-methoxy-5,5-dimethyl-6-oxo-cyclohexene-1-carbonitrile] returned a half-maximal effective concentration (EC50) of 17 nM.
`COC1(c2ncc(F)cc2-c2cncc(Cl)c2)C=C(C#N)C(=O)C(C)(C)C1` (single isomer, unassigned) [Compound 88, 3-[3-(5-chloro-3-pyridyl)-5-fluoro-2-pyridyl]-3-methoxy-5,5-dimethyl-6-oxo-cyclohexene-1-carbonitrile] yielded a concentration giving a half-maximal response (EC50) of 9 nM.
The same measure for `COC1(c2ncc(F)cc2-c2cnc(C)nc2)C=C(C#N)C(=O)C(C)(C)C1` (single isomer, unassigned) [Compound 89, 3-[5-fluoro-3-(2-methylpyrimidin-5-yl)-2-pyridyl]-3-methoxy-5,5-dimethyl-6-oxo-cyclohexene-1-carbonitrile]: 11 nM.
As for `COC1(c2ncc(F)cc2-c2ccc(C(F)(F)F)nc2)C=C(C#N)C(=O)C(C)(C)C1` (single isomer, unassigned) [Compound 90, 3-[5-fluoro-3-[6-(trifluoromethyl)-3-pyridyl]-2-pyridyl]-3-methoxy-5,5-dimethyl-6-oxo-cyclohexene-1-carbonitrile], the half-maximal effective concentration (EC50) was 11 nM.
The compound `COC1(c2ncc(F)cc2-c2c(C)nn(C)c2C)C=C(C#N)C(=O)C(C)(C)C1` (single isomer, unassigned) [Compound 92, 3-[5-fluoro-3-(1,3,5-trimethylpyrazol-4-yl)-2-pyridyl]-3-methoxy-5,5-dimethyl-6-oxo-cyclohexene-1-carbonitrile] yielded a 50% effective concentration (EC50) of 67 nM.
Compound `COC1(c2ncc(F)cc2-c2sc(C)nc2C)C=C(C#N)C(=O)C(C)(C)C1` (single isomer, unassigned) [Compound 93, 3-[3-(2,4-dimethylthiazol-5-yl)-5-fluoro-2-pyridyl]-3-methoxy-5,5-dimethyl-6-oxo-cyclohexene-1-carbonitrile] gave an EC50 of 5 nM.
Compound `C/C=C/c1cc(F)cnc1C1(OC)C=C(C#N)C(=O)C(C)(C)C1` (single isomer, unassigned) [Compound 94, 3-{5-fluoro-3-[(1E)-prop-1-en-1-yl]pyridin-2-yl}-3-methoxy-5,5-dimethyl-6-oxocyclohex-1-ene-1-carbonitrile] yielded a concentration for a half-maximal effect (EC50) of 21 nM. Against the preceding compound, the EC50 is about 4.2-fold higher.
The same measure for `COC1(c2nc(C)c(Br)s2)C=C(C#N)C(=O)C(C)(C)C1` (single isomer, unassigned) [Compound 98, 3-(5-bromo-4-methyl-1,3-thiazol-2-yl)-3-methoxy-5,5-dimethyl-6-oxocyclohex-1-ene-1-carbonitrile]: 79 nM.
Take `COC1(c2nc(C)c(-c3ccccn3)s2)C=C(C#N)C(=O)C(C)(C)C1` (single isomer, unassigned) [Compound 99, 3-methoxy-5,5-dimethyl-3-[4-methyl-5-(pyridin-2-yl)-1,3-thiazol-2-yl]-6-oxocyclohex-1-ene-1-carbonitrile]: a half-maximal effect (EC50) was put at 66 nM. This EC50 and that of the compound before are within 1.5-fold of each other.
`COC1(c2ncc(F)cc2C#CC(C)C)C=C(C#N)C(=O)C(C)(C)C1` (single isomer, unassigned) [Compound 100, 3-[5-fluoro-3-(3-methylbut-1-yn-1-yl)pyridin-2-yl]-3-methoxy-5,5-dimethyl-6-oxocyclohex-1-ene-1-carbonitrile] had an EC50 of 77 nM.
`CCCc1cccnc1C1(OC)C=C(C#N)C(=O)C(C)(C)C1` (single isomer, unassigned) [Compound 101, 3-methoxy-5,5-dimethyl-6-oxo-3-(3-propylpyridin-2-yl)cyclohex-1-ene-1-carbonitrile] came in with an EC50 of 33 nM.
`COC1(c2nc(C)c(-c3ccccn3)s2)C=C(C#N)C(=O)C2(CC2)C1` (single isomer, unassigned) [Compound 102, 7-methoxy-7-[4-methyl-5-(pyridin-2-yl)-1,3-thiazol-2-yl]-4-oxospiro[2.5]oct-5-ene-5-carbonitrile] came in with a concentration giving a half-maximal response (EC50) of 73 nM.
`COC1(c2cccc(-c3cncnc3)n2)C=C(C#N)C(=O)C(C)(C)C1` (single isomer, unassigned) [Compound 104, 3-methoxy-5,5-dimethyl-6-oxo-3-(6-(pyrimidin-5-yl)pyridin-2-yl)cyclohex-1-ene-1-carbonitrile] came in with an EC50 of 45 nM. This EC50 lies about 1.6-fold lower than the previous one.
The compound `COC1(c2cccc(-c3cnn(C)c3)n2)C=C(C#N)C(=O)C(C)(C)C1` (single isomer, unassigned) [Compound 107, 3-methoxy-5,5-dimethyl-3-(6-(1-methyl-1H-pyrazol-4-yl)pyridin-2-yl)-6-oxocyclohex-1-ene-1-carbonitrile] had an EC50 of 37 nM.
For `COC1(c2ncc(F)cc2-c2ccc3nc(C)cn3c2)C=C(C#N)C(=O)C(C)(C)C1` (single isomer, unassigned) [Compound 201, 3-[5-fluoro-3-(2-methylimidazo[1,2-a]pyridin-6-yl)pyridin-2-yl]-3-methoxy-5,5-dimethyl-6-oxocyclohex-1-ene-1-carbonitrile], the EC50 was determined as 182 nM.
The same measure for `COC1(c2ncc(F)cc2-c2ccc3ccnn3c2)C=C(C#N)C(=O)C(C)(C)C1` (single isomer, unassigned) [Compound 203, 3-[5-fluoro-3-(pyrazolo[1,5-a]pyridin-6-yl)pyridin-2-yl]-3-methoxy-5,5-dimethyl-6-oxocyclohex-1-ene-1-carbonitrile]: 6 nM; for `COC1(c2ncc(C)cn2)C=C(C#N)C(=O)C(C)(C)C1` (single isomer, unassigned) [Compound 204, 3-methoxy-5,5-dimethyl-3-(5-methylpyrimidin-2-yl)-6-oxocyclohex-1-ene-1-carbonitrile]: 9 nM; for `COC1(c2ncc(F)cc2-c2cnc3c(c2)OCCN3C)C=C(C#N)C(=O)C(C)(C)C1` (single isomer, unassigned) [Compound 205, 3-[5-fluoro-3-(4-methyl-3,4-dihydro-2H-pyrido[3,2-b][1,4]oxazin-7-yl)pyridin-2-yl]-3-methoxy-5,5-dimethyl-6-oxocyclohex-1-ene-1-carbonitrile]: 52 nM.
In turn, `COC1(c2ncc(Cl)cc2C(F)F)C=C(C#N)C(=O)C(C)(C)C1` (single isomer, unassigned) [Compound 206, 3-[5-chloro-3-(difluoromethyl)pyridin-2-yl]-3-methoxy-5,5-dimethyl-6-oxocyclohex-1-ene-1-carbonitrile] yielded a concentration giving a half-maximal response (EC50) of 159 nM.
Turning to `COC1(c2ncc(F)cc2-c2ccnc(S(=O)(=O)N(C)C)c2)C=C(C#N)C(=O)C(C)(C)C1` (single isomer, unassigned) [Compound 207, 2-[3-cyano-1-methoxy-5,5-dimethyl-4-oxocyclohex-2-en-1-yl]-5-fluoro-N,N-dimethyl[3,4′-bipyridine]-2′-sulfonamide], the EC50 came to 48 nM. Compared with the last compound, the EC50 is about 3.3-fold lower.
With `COC1(c2ncc(Cl)cc2C(F)(F)F)C=C(C#N)C(=O)C(C)(C)C1` (single isomer, unassigned) [Compound 208, 3-[5-chloro-3-(trifluoromethyl)pyridin-2-yl]-3-methoxy-5,5-dimethyl-6-oxocyclohex-1-ene-1-carbonitrile], the response was half-maximal at 231 nM (EC50).
As to `COC1(c2ncc(F)cc2-c2cnnc(C)c2)C=C(C#N)C(=O)C(C)(C)C1` (single isomer, unassigned) [Compound 209, 3-[5-fluoro-3-(6-methylpyridazin-4-yl)pyridin-2-yl]-3-methoxy-5,5-dimethyl-6-oxocyclohex-1-ene-1-carbonitrile], the EC50 was found to be 15 nM.
Compound `COC1(c2ncc(F)cc2-c2cnc(C(F)(F)F)nc2)C=C(C#N)C(=O)C(C)(C)C1` (single isomer, unassigned) [Compound 210, 3-{5-fluoro-3-[2-(trifluoromethyl)pyrimidin-5-yl]pyridin-2-yl}-3-methoxy-5,5-dimethyl-6-oxocyclohex-1-ene-1-carbonitrile] displayed an EC50 of 20 nM.
Regarding `COC1(c2ncc(C(F)(F)F)cn2)C=C(C#N)C(=O)C(C)(C)C1` (single isomer, unassigned) [Compound 211, 3-methoxy-5,5-dimethyl-6-oxo-3-[5-(trifluoromethyl)pyrimidin-2-yl]cyclohex-1-ene-1-carbonitrile], the EC50 came to 4 nM. Against the preceding compound, the EC50 is about 5-fold lower.
